The test system of one data set is human BCL11A erythroid enhancer. Briefly: Tiled pooled CRISPR-Cas9 screen for in situ functional mapping of the human BCL11A erythroid enhancer (HbF-high/HbF-low sort, sgRNA deep sequencing). The format is cell-based. The conditions noted are these: HbF enrichment; human library NGG and NGG RC sgRNAs filtered for enrichment score >0.259. In a few lines: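 HUDEP-2 cells stably expressing Cas9 transduced at low multiplicity with tiled sgRNA library covering +55/+58/+62 DHS, selected with blasticidin/puromycin, expanded one week then differentiated one week. Top and bottom 10% HbF-stained cells FACS-sorted; sgRNA representation determined by deep sequencing of genomic DNA.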
Take “BCL_01684_H_D58 (guide ACAACCTCCTTGTTTACAGANGGRC; listed as DNA, chemistry not given here)”: the “Enrichment Score” value was determined as 0.4945.

Turning to “BCL_00263_H_exon2 (guide GAAAAAAGCATCCAATCCCGNGG; listed as DNA, chemistry not given here)”, the “Enrichment Score” value is 0.6213.

Take “BCL_00089_H_D55 (guide TCCTGGTACCAGGAAGGCAANGG; listed as DNA, chemistry not given here)”: the “Enrichment Score” value worked out at 0.3559.

As to “BCL_01443_H_D55 (guide GGCACACCCTGTGATCTTGTNGGRC; listed as DNA, chemistry not given here)”, the “Enrichment Score” value worked out at 0.4181.

Regarding “BCL_02011_H_exon2 (guide CTGGAGCTCCCAACGGGCCGNGGRC; listed as DNA, chemistry not given here)”, the “Enrichment Score” value is on record as 0.6044.

Take “BCL_01634_H_D58 (guide TGGGTGGGGTAGAAGAGGACNGGRC; listed as DNA, chemistry not given here)”: the “Enrichment Score” value amounted to 0.4147.

Take “BCL_00135_H_D58 (guide CCATCTCCCTAATCTCCAATNGG; listed as DNA, chemistry not given here)”: the “Enrichment Score” value amounted to 0.2985.

On to “BCL_00086_H_D55 (guide CTCCAAGCATTGCATCATCCNGG; listed as DNA, chemistry not given here)”, for which the “Enrichment Score” value is 0.6343.

Consider “BCL_01991_H_exon2 (guide CGTCATCCTCTGGCGTGACCNGGRC; listed as DNA, chemistry not given here)”, for which the “Enrichment Score” value is 0.8523.

“BCL_00057_H_D55 (guide GGAAGGGCCTCTATGTAGACNGG; listed as DNA, chemistry not given here)”: the “Enrichment Score” value is recorded as 0.46.

As to “BCL_01454_H_D55 (guide GGGTCGCGGTAGGGAGTTGTNGGRC; listed as DNA, chemistry not given here)”, the “Enrichment Score” value stood at 0.3579.

Regarding “BCL_00131_H_D58 (guide TGGGGAGAGAAGAGTGGAAANGG; listed as DNA, chemistry not given here)”, the “Enrichment Score” value is listed as 0.2698.

For the substance “BCL_00240_H_D62 (guide TGTAATCTCAGCTACTCGGGNGG; listed as DNA, chemistry not given here)”, the “Enrichment Score” value was 0.79.

As to “BCL_01637_H_D58 (guide CCATCGGTGGCCGTTTGCCCNGGRC; listed as DNA, chemistry not given here)”, the “Enrichment Score” value stood at 0.669.

Turning to “BCL_01834_H_D62 (guide TATCAGAAGGGAACTGTTTGNGGRC; listed as DNA, chemistry not given here)”, the “Enrichment Score” value came to 0.4029.

As to “BCL_00261_H_exon2 (guide CACAAACGGAAACAATGCAANGG; listed as DNA, chemistry not given here)”, the “Enrichment Score” value is 3.329.

Take “BCL_00238_H_D62 (guide TGCCTGTAATCTCAGCTACTNGG; listed as DNA, chemistry not given here)”: the “Enrichment Score” value stood at 0.6113.

Take “BCL_00233_H_D62 (guide CAGGAGGATCACCTGAGGTCNGG; listed as DNA, chemistry not given here)”: the “Enrichment Score” value stood at 0.6113.

For “BCL_01450_H_D55 (guide TGCTTGGTCGGCACTGATAGNGGRC; listed as DNA, chemistry not given here)”, the “Enrichment Score” value is given as 1.578.

As for “BCL_00245_H_D62 (guide GGAGATCGCTTGAACCTGGGNGG; listed as DNA, chemistry not given here)”, the “Enrichment Score” value stood at 0.4762.

With “BCL_00253_H_exon2 (guide CCCGTTGGGAGCTCCAGAAGNGG; listed as DNA, chemistry not given here)”, the “Enrichment Score” value turned out to be 1.205.

For “BCL_00082_H_D55 (guide TCACAGGGTGTGCCCTGAGANGG; listed as DNA, chemistry not given here)”, the “Enrichment Score” value came to 0.4174.

Turning to “BCL_01638_H_D58 (guide CATCGGTGGCCGTTTGCCCANGGRC; listed as DNA, chemistry not given here)”, the “Enrichment Score” value is 0.635.

Consider “BCL_01999_H_exon2 (guide ATCTCGATTGGTGAAGGGGANGGRC; listed as DNA, chemistry not given here)”, for which the “Enrichment Score” value was 0.6204.

As for “BCL_01618_H_D58 (guide TTGCTTTTATCACAGGCTCCNGGRC; listed as DNA, chemistry not given here)”, the “Enrichment Score” value is listed as 0.8561.

With “BCL_00225_H_D62 (guide ACCTGTAATCCCAGCACTTTNGG; listed as DNA, chemistry not given here)”, the “Enrichment Score” value came to 0.3328.

As for “BCL_01994_H_exon2 (guide GATGCCAACCTCCACGGGATNGGRC; listed as DNA, chemistry not given here)”, the “Enrichment Score” value is reported as 1.11.

For “BCL_00031_H_D55 (guide CTGGCAGACCCTCAAGAGCANGG; listed as DNA, chemistry not given here)”, the “Enrichment Score” value was determined as 0.3216.

On to “BCL_01497_H_D55 (guide AAGAGGCCACTGAGTCCTTTNGGRC; listed as DNA, chemistry not given here)”, for which the “Enrichment Score” value was found to be 0.43.

With “BCL_01629_H_D58 (guide TCTGATTAGGGTGGGGGCGTNGGRC; listed as DNA, chemistry not given here)”, the “Enrichment Score” value is 1.104.

As for “BCL_01794_H_D62 (guide CAGGCATGTATTACCATGCCNGGRC; listed as DNA, chemistry not given here)”, the “Enrichment Score” value was determined as 0.2801.

On to “BCL_01669_H_D58 (guide CCAGCTGAAGAAAGAACATTNGGRC; listed as DNA, chemistry not given here)”, for which the “Enrichment Score” value came to 0.3196.

On to “BCL_00241_H_D62 (guide CTCAGCTACTCGGGAGGCTGNGG; listed as DNA, chemistry not given here)”, for which the “Enrichment Score” value turned out to be 0.6113.

For the substance “BCL_00227_H_D62 (guide ATCCCAGCACTTTGGGAGGCNGG; listed as DNA, chemistry not given here)”, the “Enrichment Score” value amounted to 0.79.

“BCL_00027_H_D55 (guide CCCATGGAGGTGGGGAGATGNGG; listed as DNA, chemistry not given here)”: the “Enrichment Score” value turned out to be 0.2823.

“BCL_00090_H_D55 (guide CCTGGTACCAGGAAGGCAATNGG; listed as DNA, chemistry not given here)”: the “Enrichment Score” value was 0.4651.

The same data set, now with this note: human library sgRNAs that produced HbF enrichment over 0.259.
Consider “BCL_01684_H_D58 (guide ACAACCTCCTTGTTTACAGANGGRC; listed as DNA, chemistry not given here)”, for which the “Dropout Score” value came out at 0.3674.

Consider “BCL_00263_H_exon2 (guide GAAAAAAGCATCCAATCCCGNGG; listed as DNA, chemistry not given here)”, for which the “Dropout Score” value was −2.115.

With “BCL_00089_H_D55 (guide TCCTGGTACCAGGAAGGCAANGG; listed as DNA, chemistry not given here)”, the “Dropout Score” value was −0.7862.

As for “BCL_01443_H_D55 (guide GGCACACCCTGTGATCTTGTNGGRC; listed as DNA, chemistry not given here)”, the “Dropout Score” value is on record as 0.2579.

In the case of “BCL_02011_H_exon2 (guide CTGGAGCTCCCAACGGGCCGNGGRC; listed as DNA, chemistry not given here)”, the “Dropout Score” value stood at 0.7912.

On to “BCL_01634_H_D58 (guide TGGGTGGGGTAGAAGAGGACNGGRC; listed as DNA, chemistry not given here)”, for which the “Dropout Score” value was −1.078.

“BCL_00135_H_D58 (guide CCATCTCCCTAATCTCCAATNGG; listed as DNA, chemistry not given here)”: the “Dropout Score” value is −0.04502.

Consider “BCL_00086_H_D55 (guide CTCCAAGCATTGCATCATCCNGG; listed as DNA, chemistry not given here)”, for which the “Dropout Score” value was −0.2703.

With “BCL_01991_H_exon2 (guide CGTCATCCTCTGGCGTGACCNGGRC; listed as DNA, chemistry not given here)”, the “Dropout Score” value is listed as −0.7166.

With “BCL_00057_H_D55 (guide GGAAGGGCCTCTATGTAGACNGG; listed as DNA, chemistry not given here)”, the “Dropout Score” value is −0.4451.

Regarding “BCL_01454_H_D55 (guide GGGTCGCGGTAGGGAGTTGTNGGRC; listed as DNA, chemistry not given here)”, the “Dropout Score” value is on record as −0.5577.

Consider “BCL_00131_H_D58 (guide TGGGGAGAGAAGAGTGGAAANGG; listed as DNA, chemistry not given here)”, for which the “Dropout Score” value is reported as −0.3654.

Turning to “BCL_00240_H_D62 (guide TGTAATCTCAGCTACTCGGGNGG; listed as DNA, chemistry not given here)”, the “Dropout Score” value is on record as −8.691.

On to “BCL_01637_H_D58 (guide CCATCGGTGGCCGTTTGCCCNGGRC; listed as DNA, chemistry not given here)”, for which the “Dropout Score” value is given as −0.5016.

Regarding “BCL_01834_H_D62 (guide TATCAGAAGGGAACTGTTTGNGGRC; listed as DNA, chemistry not given here)”, the “Dropout Score” value was determined as 0.02327.

For the substance “BCL_00261_H_exon2 (guide CACAAACGGAAACAATGCAANGG; listed as DNA, chemistry not given here)”, the “Dropout Score” value is reported as −2.543.

For the substance “BCL_00238_H_D62 (guide TGCCTGTAATCTCAGCTACTNGG; listed as DNA, chemistry not given here)”, the “Dropout Score” value is listed as −8.923.

As for “BCL_00233_H_D62 (guide CAGGAGGATCACCTGAGGTCNGG; listed as DNA, chemistry not given here)”, the “Dropout Score” value is recorded as −9.202.

Turning to “BCL_01450_H_D55 (guide TGCTTGGTCGGCACTGATAGNGGRC; listed as DNA, chemistry not given here)”, the “Dropout Score” value is −0.3195.

For “BCL_00245_H_D62 (guide GGAGATCGCTTGAACCTGGGNGG; listed as DNA, chemistry not given here)”, the “Dropout Score” value is −5.067.

As to “BCL_00253_H_exon2 (guide CCCGTTGGGAGCTCCAGAAGNGG; listed as DNA, chemistry not given here)”, the “Dropout Score” value is on record as −1.968.

As for “BCL_00082_H_D55 (guide TCACAGGGTGTGCCCTGAGANGG; listed as DNA, chemistry not given here)”, the “Dropout Score” value is −1.087.

For “BCL_01638_H_D58 (guide CATCGGTGGCCGTTTGCCCANGGRC; listed as DNA, chemistry not given here)”, the “Dropout Score” value was −0.5928.

As to “BCL_01999_H_exon2 (guide ATCTCGATTGGTGAAGGGGANGGRC; listed as DNA, chemistry not given here)”, the “Dropout Score” value was −0.7601.

As for “BCL_01618_H_D58 (guide TTGCTTTTATCACAGGCTCCNGGRC; listed as DNA, chemistry not given here)”, the “Dropout Score” value is given as −0.8127.

“BCL_00225_H_D62 (guide ACCTGTAATCCCAGCACTTTNGG; listed as DNA, chemistry not given here)”: the “Dropout Score” value is −8.821.

In the case of “BCL_01994_H_exon2 (guide GATGCCAACCTCCACGGGATNGGRC; listed as DNA, chemistry not given here)”, the “Dropout Score” value was −0.9904.

As for “BCL_00031_H_D55 (guide CTGGCAGACCCTCAAGAGCANGG; listed as DNA, chemistry not given here)”, the “Dropout Score” value is −1.354.

As for “BCL_01497_H_D55 (guide AAGAGGCCACTGAGTCCTTTNGGRC; listed as DNA, chemistry not given here)”, the “Dropout Score” value came out at 0.4562.

On to “BCL_01629_H_D58 (guide TCTGATTAGGGTGGGGGCGTNGGRC; listed as DNA, chemistry not given here)”, for which the “Dropout Score” value came out at 0.1807.

As to “BCL_01794_H_D62 (guide CAGGCATGTATTACCATGCCNGGRC; listed as DNA, chemistry not given here)”, the “Dropout Score” value is on record as −1.011.

For the substance “BCL_01669_H_D58 (guide CCAGCTGAAGAAAGAACATTNGGRC; listed as DNA, chemistry not given here)”, the “Dropout Score” value is −0.00075.

On to “BCL_00241_H_D62 (guide CTCAGCTACTCGGGAGGCTGNGG; listed as DNA, chemistry not given here)”, for which the “Dropout Score” value is on record as −9.052.

As for “BCL_00227_H_D62 (guide ATCCCAGCACTTTGGGAGGCNGG; listed as DNA, chemistry not given here)”, the “Dropout Score” value was −8.099.

For the substance “BCL_00027_H_D55 (guide CCCATGGAGGTGGGGAGATGNGG; listed as DNA, chemistry not given here)”, the “Dropout Score” value is recorded as −0.4562.

For the substance “BCL_00090_H_D55 (guide CCTGGTACCAGGAAGGCAATNGG; listed as DNA, chemistry not given here)”, the “Dropout Score” value was −0.5292.

The values are drawn from patent US12497610B2, “Functional genomics using CRISPR-CAS systems for saturating mutagenesis of non-coding elements, compositions, methods, libraries and applications thereof” (THE BROAD INSTITUTE, INC., priority 2015, dated 2025).
